Assay results reported in patent US20240368135A1 (VERTEX PHARMACEUTICALS INCORPORATED, priority 2021, published 2024).
Read-outs that look alike come from different tables or passages of the source.

Target: human NaV 1.8 (Homo sapiens, UniProt Q9Y5Y9)
Assay: E-VIPR assay detecting and measuring NaV inhibition properties
Type: cell-based
Settings: HEK cells expressing truncated human NaV 1.8
Procedure, shortened: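 HEK cells expressing truncated, fully active human NaV1.8, with KIR2.1 BacMam co-transduction, were loaded with CC2-DMPE/DiSBAC6(3) voltage-sensing dyes for 20 min at room temperature. Compounds were tested in 11-point 3-fold dilutions (300 nM top final), optionally with 25% human serum, under electrical stimulation with FRET read-out.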

[1] = no human serum, read-out: IC50 in the E-VIPR Assay
[2] = in the presence of human serum (compound numbers followed by *), read-out: IC50 in the E-VIPR Assay, performed in the presence of human serum

Sequence of human NaV 1.8 (Q9Y5Y9 126-399 limits assumed): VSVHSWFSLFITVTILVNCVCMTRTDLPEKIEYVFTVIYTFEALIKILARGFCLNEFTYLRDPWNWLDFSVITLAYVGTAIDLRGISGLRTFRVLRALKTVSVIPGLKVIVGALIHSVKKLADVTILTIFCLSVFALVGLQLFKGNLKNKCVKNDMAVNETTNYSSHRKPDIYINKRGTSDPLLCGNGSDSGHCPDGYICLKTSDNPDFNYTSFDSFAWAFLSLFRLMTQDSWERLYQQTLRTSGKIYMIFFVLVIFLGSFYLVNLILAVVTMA
Sequence of human NaV 1.8 (Q9Y5Y9 660-890 limits assumed): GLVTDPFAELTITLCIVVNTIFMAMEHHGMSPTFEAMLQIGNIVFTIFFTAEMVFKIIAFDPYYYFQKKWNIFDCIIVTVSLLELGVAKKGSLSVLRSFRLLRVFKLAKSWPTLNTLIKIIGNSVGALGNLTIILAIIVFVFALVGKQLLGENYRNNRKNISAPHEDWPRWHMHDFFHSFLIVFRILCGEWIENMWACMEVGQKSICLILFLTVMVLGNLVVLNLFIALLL
Sequence of human NaV 1.8 (Q9Y5Y9 1148-1722 limits assumed): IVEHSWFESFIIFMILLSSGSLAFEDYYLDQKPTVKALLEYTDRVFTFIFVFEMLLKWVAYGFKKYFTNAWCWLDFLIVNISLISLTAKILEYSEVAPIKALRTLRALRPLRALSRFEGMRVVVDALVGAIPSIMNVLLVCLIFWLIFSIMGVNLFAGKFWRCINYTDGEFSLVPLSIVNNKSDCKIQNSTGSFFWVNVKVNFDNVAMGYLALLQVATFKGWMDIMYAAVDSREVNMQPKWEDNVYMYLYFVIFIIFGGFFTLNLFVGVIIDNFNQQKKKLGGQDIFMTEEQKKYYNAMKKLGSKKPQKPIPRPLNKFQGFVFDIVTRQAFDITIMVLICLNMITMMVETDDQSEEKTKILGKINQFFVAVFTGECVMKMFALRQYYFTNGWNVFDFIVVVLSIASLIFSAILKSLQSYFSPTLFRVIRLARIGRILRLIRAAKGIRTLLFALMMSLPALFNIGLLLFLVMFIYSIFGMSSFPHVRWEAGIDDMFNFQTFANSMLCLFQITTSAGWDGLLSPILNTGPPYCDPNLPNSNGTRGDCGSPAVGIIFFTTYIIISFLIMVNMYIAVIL

SMILES	IC50 [1]	IC50 [2]
COc1c([C@H]2[C@H](C(=O)Nc3cc(C4(N)COC4)ncc3F)O[C@@](C)(C(F)(F)F)[C@H]2C)ccc(F)c1F [Compound 341, (2R,3S,4S,5R)-N-(2-(3-aminooxetan-3-yl)-5-fluoropyridin-4-yl)-3-(3,4-difluoro-2-methoxyphenyl)-4,5-dimethyl-5-(trifluoromethyl)-tetrahydrofuran-2-carboxamide]	< 0.01 µM	
COc1c([C@H]2[C@H](C(=O)Nc3ccc(C(N)=O)nc3)O[C@@](C)(C(F)(F)F)[C@H]2C)ccc(F)c1C(F)F (stereo in doubt) [Compound 168, rel-5-((2R,3S,4S,5R)-3-(3-(difluoromethyl)-4-fluoro-2-methoxyphenyl)-4,5-dimethyl-5-(trifluoromethyl)tetrahydrofuran-2-carboxamido)picolinamide]	< 0.01 µM	
COc1c([C@H]2[C@H](C(=O)Nc3ccnc(N4CCN(C)CCC4=O)c3)O[C@@](C)(C(F)(F)F)[C@H]2C)ccc(F)c1F [Compound 466, (2R,3S,4S,5R)-3-(3,4-difluoro-2-methoxyphenyl)-4,5-dimethyl-N-(2-(4-methyl-7-oxo-1,4-diazepan-1-yl)pyridin-4-yl)-5-(trifluoromethyl)tetrahydrofuran-2-carboxamide]	0.01 to 0.1 µM	
COc1c([C@H]2[C@H](C(=O)NC3CN(C)C3)O[C@@](C)(C(F)(F)F)[C@H]2C)ccc(F)c1F [Compound 278, (2R,3S,4S,5R)-3-(3,4-difluoro-2-methoxyphenyl)-4,5-dimethyl-N-(1-methylazetidin-3-yl)-5-(trifluoromethyl)tetrahydrofuran-2-carboxamide]	≥ 1 µM	
COc1c([C@H]2[C@H](C(=O)Nc3cc(CO)n(C)n3)O[C@@](C)(C(F)(F)F)[C@H]2C)ccc(F)c1F [Compound 263, (2R,3S,4S,5R)-3-(3,4-difluoro-2-methoxyphenyl)-N-(5-(hydroxymethyl)-1-methyl-1H-pyrazol-3-yl)-4,5-dimethyl-5-(trifluoromethyl)tetrahydrofuran-2-carboxamide]	0.1 to 1 µM	
COc1c([C@H]2[C@H](C(=O)Nc3ccnc(C(C)(O)CO)c3)OC(C)(C)[C@H]2C)ccc(F)c1F (single isomer, unassigned) [Compound 732]	0.01 to 0.1 µM	
COc1c([C@H]2[C@H](C(=O)Nc3ccnc(N4C(=O)[C@@H]5C[C@H]4CN5C)c3)O[C@@](C)(C(F)(F)F)[C@H]2C)ccc(F)c1F [Compound 489, (2R,3S,4S,5R)-3-(3,4-difluoro-2-methoxyphenyl)-4,5-dimethyl-N-(2-((1S,4S)-5-methyl-3-oxo-2,5-diazabicyclo[2.2.1]heptan-2-yl)pyridin-4-yl)-5-(trifluoromethyl)tetrahydrofuran-2-carboxamide]	0.01 to 0.1 µM	
C[C@H]1[C@@H](c2ccc(F)c(F)c2OC(F)F)[C@H](C(=O)Nc2ccc(C(N)=O)cc2)O[C@@]1(C)C(F)(F)F (stereo in doubt) [Compound 74, rel-(2R,3S,4S,5R)-N-(4-carbamoylphenyl)-3-(2-(difluoromethoxy)-3,4-difluorophenyl)-4,5-dimethyl-5-(trifluoromethyl)tetrahydrofuran-2-carboxamide]	< 0.01 µM	
CCOc1c([C@@H]2[C@@H](C(=O)Nc3ccnc(S(C)(=N)=O)c3)O[C@](C)(C(F)(F)F)[C@@H]2C)ccc(F)c1F (single isomer, unassigned) [Compound 11]	≥ 1 µM	
C[C@H]1[C@@H](c2ccc(F)c(F)c2OCCO)[C@H](C(=O)Nc2ccnn2C)O[C@@]1(C)C(F)(F)F [Compound 547, (2R,3S,4S,5R)-3-(3,4-difluoro-2-(2-hydroxyethoxy)phenyl)-4,5-dimethyl-N-(1-methyl-1H-pyrazol-5-yl)-5-(trifluoromethyl)tetrahydrofuran-2-carboxamide]	0.1 to 1 µM	
COc1c([C@H]2[C@H](C(=O)Nc3ccc(C(=O)N(C)O)nc3)O[C@@](C)(C(F)(F)F)[C@H]2C)ccc(F)c1F [Compound 374, 5-[[(2R,3S,4S,5R)-3-(3,4-difluoro-2-methoxy-phenyl)-4,5-dimethyl-5-(trifluoromethyl)tetrahydrofuran-2-carbonyl]amino]-N-hydroxy-N-methyl-pyridine-2-carboxamide]	0.01 to 0.1 µM	
COc1c(C2C(C(=O)Nc3ccnc(S(C)(=N)=O)c3)OC(C)(C(F)(F)F)C2C)ccc(F)c1F (single isomer, unassigned) [Compound 55, 3-(3,4-difluoro-2-methoxy-phenyl)-4,5-dimethyl-N-[2-(methylsulfonimidoyl)-4-pyridyl]-5-(trifluoromethyl)tetrahydrofuran-2-carboxamide]	< 0.01 µM	
C[C@H]1[C@@H](c2ccc(F)c(F)c2OC(F)F)[C@H](C(=O)Nc2ccn3nnnc3c2)O[C@@]1(C)C(F)(F)F (single isomer, unassigned) [Compound 80]	< 0.01 µM	
C[C@H]1[C@@H](c2ccc(F)c(F)c2OC(F)F)[C@H](C(=O)Nc2ccnnc2)O[C@@]1(C)C(F)(F)F (stereo in doubt) [Compound 64, rel-(2R,3S,4S,5R)-3-(2-(difluoromethoxy)-3,4-difluorophenyl)-4,5-dimethyl-N-(pyridazin-4-yl)-5-(trifluoromethyl)tetrahydrofuran-2-carboxamide]	< 0.01 µM	
COc1c([C@H]2[C@H](C(=O)Nc3ccnc(C[C@H](O)CO)c3)O[C@@](C)(C(F)(F)F)[C@H]2C)ccc(F)c1F [Compound 333, (2R,3S,4S,5R)-3-(3,4-difluoro-2-methoxy-phenyl)-N-[2-[(2S)-2,3-dihydroxypropyl]-4-pyridyl]-4,5-dimethyl-5-(trifluoromethyl)tetrahydrofuran-2-carboxamide]	< 0.01 µM	
COc1c([C@H]2C[C@@](C)(C(F)(F)F)O[C@@H]2C(=O)Nc2ccnc(C(O)CO)c2)ccc(F)c1C (single isomer, unassigned) [Compound 705]		≥ 1 µM
C[C@@H]1[C@H](c2ccc(F)c(F)c2OC(F)F)[C@@H](C(=O)Nc2cc(S(C)(=O)=O)c[n+]([O-])c2)O[C@]1(C)C(F)(F)F (single isomer, unassigned) [Compound 87]		≥ 1 µM
COc1c([C@H]2[C@H](C(=O)Nc3ccnc(CO)c3)O[C@@](C)(C(F)(F)F)[C@H]2C)ccc(F)c1F (single isomer, unassigned) [Compound 14]	< 0.01 µM	
CN=S(C)(=O)c1ccc(NC(=O)[C@@H]2O[C@@](C)(C(F)(F)F)[C@@H](C)[C@H]2c2ccc(F)c(F)c2OC)cn1 (single isomer, unassigned) [Compound 338]	0.01 to 0.1 µM	
C[C@H]1[C@@H](c2ccc(F)c(F)c2OCCN2C[C@H]3COC[C@H]3C2)[C@H](C(=O)Nc2cc(C(N)=O)nn2C)O[C@@]1(C)C(F)(F)F [Compound 597, 5-[[(2R,3S,4S,5R)-3-[2-[2-[(3aS,6aR)-1,3,3a,4,6,6a-hexahydrofuro[3,4-c]pyrrol-5-yl]ethoxy]-3,4-difluoro-phenyl]-4,5-dimethyl-5-(trifluoromethyl)tetrahydrofuran-2-carbonyl]amino]-1-methyl-pyrazole-3-carboxamide]	0.01 to 0.1 µM	
COCc1cc(NC(=O)[C@@H]2O[C@@](C)(C(F)(F)F)[C@@H](C)[C@H]2c2ccc(F)c(F)c2OCCO)ccn1 [Compound 564, (2R,3S,4S,5R)-3-(3,4-difluoro-2-(2-hydroxyethoxy)phenyl)-N-(2-(methoxymethyl)pyridin-4-yl)-4,5-dimethyl-5-(trifluoromethyl)tetrahydrofuran-2-carboxamide]	< 0.01 µM	
